Assay results from patent US20120231482A1, “METHOD, KIT OR DIAGNOSTIC FOR THE DETECTION OF REAGENTS WHICH INDUCE ALTERED CONTRACTILITY” (THE JOHNS HOPKINS UNIVERSITY, priority 2009, published 2012).

Tests used:
intact trabeculae = experiment: Steady-state force-[Ca2+]i relationship in intact trabeculae (tetanized with ryanodine); type: cell-based, rat; design: [Ca2+]i required for 50% of activation (Ca50): unit not given here
actin = molecular target: T1, actin (Rattus norvegicus, UniProt P68035); experiment: Gel shift assay, reducing/non-reducing western blot of cardiac myofibrils; type: biochemical; conditions: for actin higher molecular weight forms: non-reducing, lost with 5 mM DTT
T1 construct: Rat myofibrillar preparations, as described in [7], were obtained from frozen ventricles (Pel Freez Biologicals); tissue Pel Freez Biologicals; host or cells: myofibrils from frozen rat ventricles
Method: FIG. 4. Validation and characterizations of HNO modifications. 1 μg of rat cardiac myofibrils treated with HNO donors or control compounds were separated under reducing or nonreducing conditions and western blots probed for candidate proteins tropomyosin, actin, myosin heavy chain, myosin light chain 1 (n=4). […] Silver stained gel analysis indicated a protein band with […] gel mobility that was lost with DTT.
FIG. 5. Evaluation of the interaction between actin and tropomyosin with NCA treatment. Purified rabbit skeletal tropomyosin (0.03 μg) and isolated rat cardiac myofibrils (1 μg) were treated with NCA or AS and evaluated by 1D non-reducing western blot probing for tropomyosin (A) and actin (B) (n=3). […] (C) Fluorescent DIGE analysis of samples from A and B independent labeled indicates NCA specific band (green) above purified TM (blue) and below AS treated myofibrils (red) (n=3). (D) MS analysis of the same gel region identified both tropomyosin and actin in non-reduced lane but not with DTT treatment (n=2).
Gel shift assay. 10 μg of rat myofibrils/treatment were diluted to 0.5 μg/μl in HEN including 0.1% (w/v) SDS and exposed to a treatment for 20 min at 37° C. Samples were diluted to 0.1 ug/ul in 1×LSD sample buffer, treated with 0, 5 or 100 mM DTT and separated by SDS PAGE. Proteins were silver stained or transferred to nitrocellulose and immunoblotted with primary antibodies for tropomyosin sarcomeric (CH1, Sigma-Aldrich Co., St. Louis, Mo., USA), actin (AC-40, Sigma-Aldrich Co., St. Louis, Mo., USA), myosin light chain 1 (MLM527, Abcam, Cambridge, Mass., USA) or myosin heavy chain (3-48, Abcam, Cambridge, Mass., USA). For some silver stained gel bands of interest in-gel digestion was done following the protocol outlined in Shevchenko et al.. Gel slices of interest were excised from the gels cut into 1 mm^3 pieces. Silver stained gel pieces were destained in 1:1(v/v) 30 mM Potassium ferricyanide and 100 mM Sodium thiosulfate and wash three times with ddH2O. Gel pieces were dehydrated in 100% acetonitrile and reswelled in 10 mM DTT and incubated at 55° C. for 1 hour. After the DTT solution was removed, a solution of 55 mM iodoacetimide was added and gel slices were incubated at room temperature protected from light. Gel slices were then washed 3 times with 50% (v/v) ACN, 25 mM (NH4)HCO3 and then fully dehydrated in 100% ACN and dried in a speed vac. Gel pieces were reswelled in a 12.5 ng/μL trypsin (Promega, Madison Wis. USA) solution containing 25 mM (NH4)HCO3 and incubated at 37° C. for >16 hours. Digested peptides were extracted by addition of 5% (v/v) formic acid and incubation for 15 min followed by addition of an equal volume of 100% ACN and 15 min incubation, this step was repeated and the extracts were combined. […]

[1] = AS applied to isolated trebecula or skinned muscle preparations

SMILES	Ca50 (intact trabeculae; [1])	Hill coefficient (intact trabeculae; [1])	maximum force of contraction (intact trabeculae; [1])	actin higher molecular weight forms (actin)	Hill (intact trabeculae; NCA 20 μmol/L, intact muscles)	[Ca2+]i required for 50% of activation (Ca50) (intact trabeculae; NCA 20 μmol/L, intact muscles)	maximal Ca2+-activated force (Fmax) (intact trabeculae; NCA 20 μmol/L, intact muscles)	antibody epitope binding of monomeric actin (actin; western blot)
[Na+].[Na+].[O-][N+]([O-])=NO [AS, Angeli's Salt]	without altering	without altering	increase	approximately 80 kDa	–	–	–	–
CC(=O)OC1(N=O)CCCCC1 [NCA, 1-nitrosocyclohexylacetate]	–	–	–	approximately 80 kDa	4.92±0.84	0.42±0.01	123±18 mN/mm^2	loss of antibody epitope binding
